From the pKa sets of Baltruschat and Czodrowski (2020)

conditions: acidic group

| SMILES | pKa |
| --- | --- |
| N#Cc1ccc2c(c1)C([P+](c1ccccc1)(c1ccccc1)c1ccccc1)c1ccccc1-2 (stereo not drawn) | 5.81 |
| O=P([O-])([O-])C([NH2+]Cc1cccnc1)c1ccccc1O (stereo not drawn) | 10.2 |
| O/N=C/c1ccco1 | 10.8 |
| C/C(=C\C=C\C(C)C(=O)O)[C@H]1C[NH2+][C@H](C(=O)[O-])[C@H]1CC(=O)O (stereo partly drawn) | 3.72 |
| Oc1ccccc1-c1cc2ccccc2cc1O | 7.55 |
| O=C([O-])c1cc2ccccc2cc1O | 12.2 |
| Cc1c(Cn2cc[nH+]c2)oc2ccc(C(=O)O)cc12 | 3.91 |
| O=S(Cc1ccccc1)c1ncc[nH]1 (stereo not drawn) | 9.8 |
| COc1cccc(O)c1O | 9.28 |
| O=c1c(O)c1-c1ccc(F)cc1 | 2.07 |
| O=C(O)c1ccc[nH+]c1 | 2.03 |
| CCN(CC)Cc1cc(F)ccc1O | 10.8 |
| O=C(O)c1cc[n+](O)cc1 | -0.48 |
| O=C1CCCC(=O)N1O | 7.6 |
| OC(O)c1ccccn1 | 12.8 |
| OCCN1CCN(CCO)CC1 | 7.75 |
| C[NH+](C)CCNC(=O)/C=N/O | 8.17 |
| Oc1cccc2cn[nH]c12 | 8.6 |
| Cc1cccc(O)c1C(=O)O | 3.35 |
| CC(=O)c1cc(C)c(C)cc1O | 11.6 |
| CC[NH+](CC)Cc1cc(Cl)ccc1O | 8.11 |

| SMILES | pKa |
| --- | --- |
| SCC[NH2+]CCc1ccccc1 | 7.85 |
| C[NH2+]CCCNC(=O)/C=N/O | 8.61 |
| O=C/C(O)=C\[O-] | 13 |
| CC(=O)c1cccc(NC(N)=S)c1 | 12.1 |
| Cc1cccc(=O)c(O)c1 | 7.26 |
| O=C(O)c1cccccc1=O | 3.73 |
| O=C(O)COc1ccccc1[N+](=O)[O-] | 2.9 |
| CSC(=S)N(C)CC(=O)O | 2.98 |
| Cc1nc2ncncc2[nH]1 | 9.37 |
| O=C(N/N=C/c1ccccc1[O-])c1ccncc1 | 11.3 |
| O=C1CCC(=O)N1O | 6.04 |
| CCOc1ccc(C)c(C(=O)O)c1 | 3.86 |
| O=[N+]([O-])c1ccc2c(O)cccc2c1 | 8.49 |
| O=[N+]([O-])c1n[nH]c(-n2cnc(Cl)n2)n1 | 1.59 |
| O=C(O)c1cc2cc(Cn3cc[nH+]c3)ccc2s1 | 2.74 |
| C[C@H]1CC[C@@H](C(=O)O)CC1 | 5.04 |
| Cc1c(Cc2c(C)n(C)[n+](-c3ccccc3)c2O)c(=O)n(-c2ccccc2)n1C | 1.51 |
| O=[N+]([O-])c1ccc(O)c(C[NH+]2CCOCC2)c1 | 5.61 |
| CNc1nc(C)nc2[nH]ncc12 | 11.3 |
| C[N+](=O)[O-] | 10.5 |
| [NH3+]CCC(=O)N[C@@H](Cc1c[nH+]c[nH]1)C(=O)O | 2.63 |

| SMILES | pKa |
| --- | --- |
| CCc1nnc(CC)n1N | 9.77 |
| CC(C)(S)[C@@H](C(=O)O)n1cc[nH+]c1Cc1ccccc1 | 2.81 |
| CCOC(=O)COc1ccc(Oc2ccc(O)c(C[NH3+])c2)c(Cl)c1Cl | 8.55 |
| O=Cc1cccnc1C(=O)O | 3.7 |
| N#CC(C#N)=C(C#N)Nc1ccc(Br)cc1 | 4.45 |
| O=C([O-])c1c(O)ccc2ccccc12 | 10.9 |
| Cc1ccc(O)c(C(=O)[O-])c1 | 14 |
| [NH3+]C(Cc1c[nH]c(=S)[nH]1)C(=O)O (stereo not drawn) | 1.84 |
| CCC#CC#CC#CC(=O)O | 1.67 |
| CC(C)[C@H]1C[NH2+][C@H](C(=O)[O-])[C@H]1CC(=O)O | 4.23 |
| O=C(O)CSc1ccccc1[N+](=O)[O-] | 3.18 |
| C[n+]1cccc2cccc(O)c21 | 6.81 |
| C/C(=N/O)c1cc(C)c(C)cc1O | 8.2 |
| CCCOc1ccc(C(=O)O)cc1 | 4.63 |
| O=C(O)c1ccc(C2CC2)cc1 | 4.42 |
| N#CC[N+](=O)[O-] | 4.86 |
| COC(=O)c1ccccc1S | 6.3 |
| COc1cc(C)ccc1C(=O)O | 4.38 |
| CC(C)(C)Cc1ccc(O)cc1 | 10.7 |
| O=C([O-])C[NH+](CC(=O)[O-])Cc1ccccc1O | 8.17 |
| CCCC(C)C1C(=O)NC(=S)N=C1[O-] (stereo not drawn) | 11.4 |

| SMILES | pKa |
| --- | --- |
| O=C(O)C[C@]1(O)C[C@@H]2CC[C@H]1C2 | 4.46 |
| O=C(c1ccccc1)c1ccc([O-])[n+](O)c1 | 5.13 |
| Nc1nccc2c1[nH+]cn2CCOCP(=O)([O-])O | 6.56 |
| CC/C=C/Cc1nc(C(=O)[O-])cn1[C@H](C(=O)[O-])C(C)(C)S | 10.2 |
| O=C(O)c1cccc(Oc2ccccc2)c1 | 3.95 |
| NNC(=O)c1cccc(N)c1 | 12.4 |
| CCP(=O)(CC)CC(C)=O | 11.9 |
| N#CC(CCC(=O)O)c1ccccc1 (stereo not drawn) | 4.4 |
| O=S(=O)(Nc1cccc(C(F)(F)F)c1)c1ccccc1 | 7.63 |
| CC(C)CCC1C(=O)C(O)C(CCC(C)C)(CCC(C)C)C1=O (stereo not drawn) | 6.3 |
| O=[N+]([O-])c1cc(O)ccc1[O-] | 10.1 |
| O=C(O)C(c1ccc(-c2ccccc2)cc1)C(O)C1CCCCC1 (stereo not drawn) | 4.19 |
| Cn1nc(/N=N/O)nc1Cl | 5.17 |
| C/C(=N/c1ccccc1O)c1ccccc1O | 9.23 |
| Oc1cc[nH+]c2ccccc12 | 2.27 |
| O=C(O)c1[nH]c[nH+]c1C(=O)[O-] | 4.27 |
| O=C(O)/C=C/c1ccc(O)cc1 | 4.64 |
| Cc1cc(O)n(-c2nc(O)c(C)c(C)[nH+]2)n1 | 5.5 |
| O=C(O)Cc1ccco1 | 3.72 |

same assay, conditions: basic group

| SMILES | pKa |
| --- | --- |
| CCN(CC)C(C)C=C(c1cccs1)c1cccs1 (stereo not drawn) | 8.9 |
| CCN(C)NC | 6.85 |
| Nc1ccc2[nH]c(Cc3ccccc3)nc2c1 | 6.4 |
| C=CCN1CCOCC1 | 7.05 |
| COc1ccc2c3c1O[C@H]1[C@@H](O)C=C[C@H]4[C@@H](C2)N(CCC#N)CC[C@@]341 | 5.68 |
| CC1=NCCS1 | 5.29 |
| CC(C)NCCCCCCNC(C)C | 11.2 |
| Nc1c2ccccc2nc2c(N)cccc12 | 9.3 |
| CC(C)Cc1ccc(O)c(CN(C)C)c1 | 8.51 |
| O=C(O)c1ccc[nH+]c1 | -2.4 |
| C=CCN1CCCCC1 | 9.66 |
| CCOCCNc1ccc(OC)cc1 | 4.99 |
| Cn1ccc2ccccc2c1=O | -1.8 |
| CNC(=O)C1CCCCN1 (stereo not drawn) | 8.8 |
| NCC(O)c1ccc(Cl)cc1 (stereo not drawn) | 9.04 |
| Cn1/c(=N/N)ccc2ccccc21 | 9.17 |
| Cc1cc(N)cc(C)c1[N+](=O)[O-] | 2.56 |
| C#CC(CC)(CC)N(C)C(C)C | 8.8 |
| C=CC(=O)NC(C)(C)CCN(C)C | 9.39 |
| c1cc(N2CCCCC2)ccc1N1CCCCC1 | 6.5 |
| C#CCN | 8.19 |
| Oc1ccccc1CN1CCCCC1 | 8.6 |
| CNN(C)C | 6.64 |

| SMILES | pKa |
| --- | --- |
| Nc1ccc(C[NH3+])cc1 | 4.16 |
| Nc1ccc(CC(=O)[O-])cc1 | 5.2 |
| [NH3+]CCNCCO | 6.66 |
| Nc1ccncc1C(=O)[O-] | 9.1 |
| CNc1nccn2cc(-c3ccc(S(C)=O)cc3OC)nc12 (stereo not drawn) | 5.36 |
| Cn1cncc1C[C@H](NC(=O)CCN)C(=O)[O-] | 9.53 |
| Cc1ccccc1/C(=N\CCC[NH+](C)C)c1ccccc1Cl | 3.37 |
| Cc1ccc(/N=N/c2ccc(N(C)C)cc2)cc1C | 2.37 |
| [O-]c1ccnc([S-])[nH+]1 | 7.75 |
| CCc1ccccn1 | 5.98 |
| CN(C)/C=N/c1ccc(Cl)cc1 | 8.46 |
| NCCBr | 8.5 |
| Cc1cccc(C(=O)[O-])n1 | 5.8 |
| Cc1ccc(-c2cnc(-c3ccc(C)cc3)o2)cc1 | 1.12 |
| CN1C2CCC(CC2)N1C | 7.14 |
| Cc1nc2ncncc2[nH]1 | 2.85 |
| Cc1cccc(C=O)n1 | 4.55 |
| CNCCN(C)CC[NH2+]C | 9.84 |
| O=Cc1cc(-c2ccccc2)nnc1NCCN1CCOCC1 | 6.89 |
| C1CCC2(CC1)N1CCCN12 (stereo not drawn) | 5.19 |
| NCCCCCc1cccnc1 | 10.3 |
| OCCCc1ccccn1 | 5.71 |
| CN(C)c1ccc(SC#N)cc1 | 3.3 |

| SMILES | pKa |
| --- | --- |
| Cc1ccccc1/C(=N\CCCN(C)C)c1ccccc1N | 9 |
| Fc1ccc2[nH]cnc2c1 | 5.11 |
| CNc1nc(C)nc2[nH]ncc12 | 5.56 |
| CC(C)[NH+](CCC(c1ccccc1)c1ccccn1)C(C)C (stereo not drawn) | 3.2 |
| Cc1ncnc2c1NCCN2 | 6.74 |
| CC(C)NNC1CCN(C)CC1 | 9.07 |
| C=C[C@]1(O)CN2CC[C@H]1C[C@@H]2[C@@H](O)c1ccnc2ccc(OC)cc12 | 7.24 |
| c1c[nH]c(Cc2ncc[nH]2)n1 | 7.27 |
| CN1C(C)(C)CCCC1(C)C | 11.2 |
| c1ccc2ncncc2c1 | 3.51 |
| O=C([O-])/C=C\c1c[nH]cn1 | 6.7 |
| CCN1CC[C@]2(C)c3cc(O)ccc3C[C@H]1[C@H]2C | 9.42 |
| Cc1cnc2c(c1)c(C)cc1c(C)ccnc12 | 5.9 |
| COc1ccc(N)cn1 | 4.24 |
| CC1=C(CC(C)NCC(O)c2ccccc2)CCC1(C)C (stereo not drawn) | 8.84 |
| COc1nc(C)cc([O-])n1 | 8.4 |
| c1ccc2c(c1)CCCN2 | 4.96 |
| [O-]c1ccc(Cl)cc1CN1CCCCC1 | 11.8 |
| CCN(CC)Cc1c(C)cccc1O | 8.65 |
| c1ccc(-c2ccn[nH]2)[nH+]c1 | -1.1 |
| O=C(c1ccccc1)n1cnc2ccccc21 | 1.8 |
| NC(=O)Cc1cccnc1 | 4.72 |
| CCCc1ncc[nH]1 | 8.02 |

| SMILES | pKa |
| --- | --- |
| [NH3+]Cc1cccnc1 | 3.71 |
| CCC(C)N(C)c1ccccc1 (stereo not drawn) | 6.03 |
| CC/C=C/Cc1nc(C(=O)[O-])cn1[C@H](C(=O)[O-])C(C)(C)S | 6.4 |
| Nc1cccc(Cl)c1 | 3.59 |
| c1ccc(Oc2ccncc2)cc1 | 6.16 |
| NNC(=O)c1cccc(N)c1 | 3.75 |
| CNC(C)Cc1ccc(OC)c(OC)c1 (stereo not drawn) | 9.8 |
| CN(C)c1cccc(Cl)c1 | 3.83 |
| Cn1cncc(-c2ccccc2)c1=O | 1.5 |
| O=C([O-])CN(CC(=O)[O-])Cc1ccccc1[O-] | 11.8 |
| CC(C)[NH2+]CC(O)c1cccc(N)c1 (stereo not drawn) | 4.22 |
| O=C([O-])[C@@H]1O[C@H](Oc2ccc3ncccc3c2)[C@@H](O)[C@H](O)[C@H]1O | 5 |
| Cc1cc(N[NH3+])nc2ccccc12 | 2.8 |
| Cc1cc(-n2[nH+]c(C)cc2C)[nH]n1 | -2.4 |
| OCCn1cnc2ccccc21 | 5.29 |
| CC1[C@H](N)[C@H]1N (stereo partly drawn) | 8.98 |
| C/C(=N/c1ccccc1O)c1ccccc1O | 5.14 |
| COc1nc2ccccc2[nH]1 | 3.75 |
| CN(C)CCc1ccc(O)cc1 | 9.8 |
| Cc1nc(C)nc(N)n1 | 3.6 |
| Nc1ncc2ncn([C@H]3O[C@@H](CO)[C@H](O)[C@@H]3O)c2n1 | 3.4 |
| C[NH+](C)CCC/N=C(\c1ccccc1)c1ccccc1O | 3.31 |
